Reference: patent publication US20250186411A1, “Methods of Treating Disorders Associated with Overactivation of IKKB” (The United States Government as represented by the …, priority 2023, published 2025)
Several values for one entry are separate records, joined by “and”; a condition that tells them apart may be missing. Identical values can stand only once.

How the values were obtained:
[1] = test system: KLF15 promoter (pEZX-FR03hKLF15p human podocytes); test: Half maximal effective concentration (EC50) of KLF15 reporter activity; type: cell-based; details: KLF15 reporter activity, dose-response; read-out: EC50
Experimental: The EC50 was determined using nonlinear regression and then choosing the equation of Sigmoidal function, 4PL method (X is log(concentration); or the equation of log(agonist) vs. response—variable slope).
To identify small molecule inducers of KLF15 expression in human podocytes, human podocytes were generated with a dual reporter, firefly luciferase directed at the KLF15 promoter region and renilla luciferase (pEZX-FR03hKLF15p). […] The positive controls were inducers of KLF15 expression, dexamethasone (DEX) and all-trans retinoic acid (atRA), and […] and cell-free wells served as negative controls.

[2] = test system: KLF15 promoter (pEZX-FR03hKLF5p human podocytes); test: Lipopolysaccharide treatment in human podocytes, KLF15 reporter activity; type: cell-based; details: as compared to DMSO
Experimental: (§1) Differentiated pEZX-FR03hKLF5p human podocytes were treated with 25 μg/ml lipopolysaccharide (LPS) or vehicle and 1 μM KLF15 agonist or vehicle control for 24 hours. Firefly and renilla luciferase assay were measured initially to determine relative KLF15 reporter activity.

human podocytes = test: Cell viability of podocytes (renilla activity, MTS assay); type: cell-based
Experimental: as §1
Differentiated pEZX-FR03hKLF5p human podocytes were treated with 0.4 μg/ml adriamycin (ADR) or vehicle and 1 μM KLF15 agonist or vehicle control for 24 hours. Firefly and renilla luciferase assay were measured initially to determine relative KLF15 reporter activity.
To assess cell viability, the CellTiter 96® AQueous One Solution Reagent (Promega) was added to the culture media and plates were incubated for 2 hours at 37° C. with 5% CO2.

Tg26 mice = test: HIV-1 transgenic (Tg26) model; type: in vivo, mouse
Experimental: Urine albumin was quantified by ELISA using a kit from Bethyl Laboratory Inc. Urine creatinine levels were measured in the same samples using the Creatinine Colorimetric Assay Kit (500701; Cayman Chemical) as per manufacturer's protocol.
Briefly formalin-fixed and paraffin embedded sections were deparaffinized, and endogenous peroxidase was inactivated with H2O2. All kidney sections from these mice were prepared in identical fashion. Immunofluorescence was performed using rabbit anti-KLF15, mouse anti-WT1 (Santa Cruz, SC-7385), rabbit anti-Synaptopodin (Sigma, SAB3500585), rabbit anti-p65 (Cell Signaling Tech, 8242S) antibodies. After washing, sections were incubated with the appropriate fluorophore-linked secondary antibody (Alexa Fluor 647 Donkey anti-mouse, Alexa Fluor 568 Donkey anti-rabbit antibodies, Life Technologies). After counter staining with Hoechst (Thermo Fisher Scientific), slides were mounted in Prolong Gold mounting media (Thermo Fisher Scientific) and photographed under a Nikon Eclipse Ni-E Fully Motorized Microscope System with a DS-Qi2 digital camera.
Quantification of KLF15 staining in the podocytes was determined by quantifying the intensity of KLF15 staining (optical density) in WT1+Hoechst staining using ImageJ 1.53c software (National Institute of Health, http://imagej.nih.gov/ij).
Mice were perfused with PBS, and the kidneys were fixed in 10% phosphate buffered formalin overnight and switched to 70% ethanol before processing for histology. Kidney tissue was embedded in paraffin by Stony Brook Medicine Research Histology Core Laboratory (RHCL)—Department of Pathology and 4-μm-thick sections were stained with periodic acid-Schiff (PAS), hematoxylin & eosin (H&E), and masson's trichrome (Sigma-Aldrich). Quantification of % FSGS was determined by renal pathology in a blinded fashion (Huntsman Cancer Institute-University of Utah Health).

[3] = molecular target: hERG Human Potassium Ion Channel (Homo sapiens, UniProt Q12809); test: hERG Human Potassium Ion Channel Cell Based QPatch CiPA Assay
Sequence of hERG Human Potassium Ion Channel (Q12809 whole entry): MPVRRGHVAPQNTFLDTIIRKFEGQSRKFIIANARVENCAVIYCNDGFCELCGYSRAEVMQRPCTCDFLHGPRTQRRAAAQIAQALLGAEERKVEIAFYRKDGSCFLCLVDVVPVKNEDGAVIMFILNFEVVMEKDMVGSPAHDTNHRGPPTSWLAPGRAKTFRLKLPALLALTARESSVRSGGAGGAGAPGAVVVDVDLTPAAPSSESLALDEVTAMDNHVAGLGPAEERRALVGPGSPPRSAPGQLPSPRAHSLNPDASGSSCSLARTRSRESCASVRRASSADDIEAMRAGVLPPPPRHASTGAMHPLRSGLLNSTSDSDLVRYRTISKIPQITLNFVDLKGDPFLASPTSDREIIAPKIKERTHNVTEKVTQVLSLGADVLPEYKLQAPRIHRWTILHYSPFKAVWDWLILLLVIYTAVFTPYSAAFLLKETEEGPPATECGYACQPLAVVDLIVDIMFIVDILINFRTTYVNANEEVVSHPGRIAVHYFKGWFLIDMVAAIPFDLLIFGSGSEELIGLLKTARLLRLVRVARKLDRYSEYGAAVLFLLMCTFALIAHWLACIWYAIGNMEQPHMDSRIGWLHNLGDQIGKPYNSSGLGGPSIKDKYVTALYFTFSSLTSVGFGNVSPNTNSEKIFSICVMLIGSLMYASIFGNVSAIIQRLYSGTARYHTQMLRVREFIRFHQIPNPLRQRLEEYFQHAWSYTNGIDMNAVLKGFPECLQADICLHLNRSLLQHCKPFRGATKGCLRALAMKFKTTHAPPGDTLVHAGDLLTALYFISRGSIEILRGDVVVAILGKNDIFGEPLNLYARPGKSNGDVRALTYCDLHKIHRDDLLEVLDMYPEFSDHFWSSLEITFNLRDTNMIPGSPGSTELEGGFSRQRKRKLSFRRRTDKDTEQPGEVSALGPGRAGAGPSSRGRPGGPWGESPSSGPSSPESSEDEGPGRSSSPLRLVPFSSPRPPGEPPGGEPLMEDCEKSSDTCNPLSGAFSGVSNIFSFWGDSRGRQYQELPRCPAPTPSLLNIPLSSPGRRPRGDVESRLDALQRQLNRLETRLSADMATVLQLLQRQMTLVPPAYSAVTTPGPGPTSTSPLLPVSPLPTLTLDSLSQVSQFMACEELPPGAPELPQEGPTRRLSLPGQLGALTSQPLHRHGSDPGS
Source text: A 500 ms pulse to −40 mV is delivered to measure the leaking current, which is subtracted from the tail current on-line. The cell is subsequently depolarized to +40 mV for 500 ms and then to −80 mV over a 100 ms ramp to elicit the hERG tail current. The parameters measured were the maximum tail current evoked on stepping to 40 mV and ramping back to −80 mV from the test pulse. All data were filtered for seal quality, seal drop, and current amplitude.

[4] = test system: differentiated human podocytes; test: Oxygen consumption rate and extracellular acidification rate (Seahorse XFe96); type: cell-based
Experimental: Subsequently, basal OCR, maximal respiration, ATP-linked respiration, and spare respiratory capacity were determined in the presence of oligomycin, carbonyl cyanide-p-trifluoromethoxyphenylhydrazone (FCCP), and rotenone/antimycin A. All OCR measurements were normalized for the number of cells per well using CyQuant reagent (Life Technologies).

[5] = test system: NF-κB signaling (p50, p65, IκBα)
Source text: Differentiated human podocytes were lysed with a fractionation buffer containing 1× protease and phosphatase inhibitor cocktail (Thermo Fisher Scientific) and separate cytoplasmic and nuclear fractions using a modified procedure described before (72).

IKKβ = IKKβ (Homo sapiens, UniProt O14920)
Sequence of IKKβ (O14920 whole entry): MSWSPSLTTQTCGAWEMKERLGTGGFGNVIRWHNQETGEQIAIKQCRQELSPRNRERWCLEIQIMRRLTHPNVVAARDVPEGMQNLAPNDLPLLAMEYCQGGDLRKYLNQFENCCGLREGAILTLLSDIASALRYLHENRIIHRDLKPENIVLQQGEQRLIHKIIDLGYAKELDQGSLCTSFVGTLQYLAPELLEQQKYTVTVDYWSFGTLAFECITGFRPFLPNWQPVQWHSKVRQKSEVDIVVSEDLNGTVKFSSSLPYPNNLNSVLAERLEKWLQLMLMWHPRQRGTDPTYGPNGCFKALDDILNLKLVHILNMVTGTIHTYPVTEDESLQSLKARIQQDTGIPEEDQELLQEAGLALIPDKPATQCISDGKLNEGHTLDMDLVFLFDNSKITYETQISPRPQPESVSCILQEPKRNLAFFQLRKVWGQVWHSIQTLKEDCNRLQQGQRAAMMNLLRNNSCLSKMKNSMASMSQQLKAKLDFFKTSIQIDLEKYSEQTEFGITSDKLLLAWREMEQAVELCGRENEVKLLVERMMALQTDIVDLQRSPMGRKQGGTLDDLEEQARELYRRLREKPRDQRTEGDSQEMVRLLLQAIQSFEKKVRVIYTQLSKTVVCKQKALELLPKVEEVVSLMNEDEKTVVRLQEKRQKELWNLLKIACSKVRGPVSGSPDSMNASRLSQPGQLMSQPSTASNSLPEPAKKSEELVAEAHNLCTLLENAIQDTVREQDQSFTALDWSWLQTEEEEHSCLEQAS
Experimental: After the kinase reaction, an equal volume of ADP-Go™ Reagent is added to both terminate the kinase reaction and deplete the remaining ATP. Subsequently, the Detection Reagent is added to simultaneously convert ADP to ATP and measure the concentrations of newly synthesized ATP using a luciferase/luciferin reaction. The light generated is measured using a 96-well plate reader SpectraMax M3 (Molecular Devices). Luminescence can be correlated to ADP concentrations by using an ATP-to-ADP conversion curve.

mice = details: as compared to DMSO treatment
Source text: Serum was subsequently collected and mice were euthanized for collection of kidney, liver, and heart tissue.

CSc1ccc(NC(=O)Nc2ccc(C)nc2)cc1 [BT503]
EC50 [1]: ~7.1 nM and < 10 nM
KLF15 activity in the setting of LPS treatment [2]: maintained the elevated KLF15 activity
toxicity to human podocytes (human podocytes; analogue screen): no observed toxicity
renilla activity (cell viability) in the setting of LPS treatment (human podocytes; as compared to DMSO-treated podocytes): restored renilla activity
p65 expression (kidney lysates) (Tg26 mice): reduced
albuminuria (Tg26 mice; daily for 14 days, vs DMSO): significantly mitigated the increase in albuminuria
% of glomeruli with focal segmental and global GS lesions (Tg26 mice; vs DMSO): significantly reduced
glomerular synaptopodin expression (Tg26 mice; vs DMSO): restored
interstitial fibrosis (Tg26 mice; vs DMSO): reduced interstitial fibrosis
kidney function (serum urea nitrogen and creatinine) (Tg26 mice; vs DMSO): improved kidney function
podocyte number (WT1+ podocytes per glomerular cross-sectional area) (Tg26 mice; vs DMSO): preserved podocyte number
% inhibition mean ([3]; 3 μM): 1.20%
% inhibition n1 ([3]; 3 μM): −2.01%
% inhibition n2 ([3]; 3 μM): 4.41%
% inhibition mean ([3]; 10 μM): 6.25%
% inhibition n1 ([3]; 10 μM): −0.08%
% inhibition n2 ([3]; 10 μM): 12.57%
hERG inhibition ([3]; 3-10 μM, as compared to positive control): low inhibition
basal respiration, maximal respiration, ATP-linked respiration, and spare respiratory capacity ([4]; 3-10 μM): No significant differences
oxygen consumption rate (OCR) and extracellular acidification rate (ECAR) ([4]; as compared to DMSO or DEX): no significant differences
nuclear localization of p50 and p65 ([5]; LPS-treated podocytes): mitigated this translocation
IκBα expression ([5]; vs DMSO in the setting of LPS treatment): significantly increased
inhibition of kinase activity at higher ATP concentrations (IKKβ; ATP 50 μM): mitigated
IC50 (IKKβ; read-out: IC50 (IKKβ kinase activity), IKBKB^WT): 163 nM
aspartate aminotransferase (AST), alanine transaminase (ALT) levels (mice): no significant difference
histological changes in the kidney, heart, and liver tissue (mice): no significant difference
